One may read the inhibition as the change of the read-out against control, counted positive when it falls. Usually pIC50 stands for the IC50 on a negative log10 scale, so that one unit is a factor of ten.

We go through 26 molecules from ChEMBL document CHEMBL5625254, “Design, synthesis and evaluation of ursodeoxycholic acid-cinnamic acid hybrids as potential anti-inflammatory agents by inhibiting Akt/NF-κB and MAPK signaling pathways” (Eur J Med Chem, 2023).

In series [1] the test system is RAW264.7. Briefly: Anti-inflammatory activity in mouse RAW264.7 cells assessed as inhibition of LPS-induced NO production at 10 uM incubated for 24 hrs relative to control. It is filed as functional.
The test system of series [2] is RAW264.7. Briefly: Anti-inflammatory activity in mouse RAW264.7 cells assessed as inhibition of LPS-induced NO production incubated for 24 hrs. In kind it is functional, cell-based. The following applies: for pIC50: RAW264.7, 24 h; for inhibition: dose 1.25-20 µM.
For series [3], the system named is RAW264.7. Briefly: Cytotoxicity against mouse RAW264.7 cells assessed as cell viability at 20 uM incubated for 24 hrs by CCK8 assay. It is filed as toxicity, cell-based. The following applies: raw264.7, 24 h.

pIC50: −log10 of the molar value.

Regarding `C[C@H](CCC(=O)N1CCN(C(=O)/C=C/c2ccccc2)CC1)[C@H]1CC[C@H]2[C@@H]3[C@@H](O)C[C@@H]4C[C@H](O)CC[C@]4(C)[C@H]3CC[C@]12C`, the inhibition at 10 µM with RAW264.7 [1] is greater than 50%. Moreover, in the series on RAW264.7 [2], the negative-log IC50 (pIC50) was 5.02 and the inhibition result is “Dose-Dependent Effect”. For the same molecule, in the series on RAW264.7 [3], the Activity result was “Non-Toxic”. As for `C[C@H](CCC(=O)N1CCN(C(=O)/C=C/c2cccc(Cl)c2)CC1)[C@H]1CC[C@H]2[C@@H]3[C@@H](O)C[C@@H]4C[C@H](O)CC[C@]4(C)[C@H]3CC[C@]12C`, the Activity result in the series on RAW264.7 [3] is recorded as “Non-Toxic”.

Consider `C[C@H](CCC(=O)N1CCN(C(=O)/C=C\c2ccc3c(c2)OCO3)CC1)[C@H]1CC[C@H]2[C@@H]3[C@@H](O)C[C@@H]4C[C@H](O)CC[C@]4(C)[C@H]3CC[C@]12C`, for which the Activity result with RAW264.7 [3] is reported as “Non-Toxic”.

For the molecule `C[C@H](CCC(=O)N1CCN(C(=O)/C=C/c2cc(F)c(F)c(F)c2)CC1)[C@H]1CC[C@H]2[C@@H]3[C@@H](O)C[C@@H]4C[C@H](O)CC[C@]4(C)[C@H]3CC[C@]12C`, the Activity result with RAW264.7 [3] is on record as “Toxic”. Same read-out and setting: for `C[C@H](CCC(=O)N1CCN(C(=O)/C=C/c2cccc(O)c2)CC1)[C@H]1CC[C@H]2[C@@H]3[C@@H](O)C[C@@H]4C[C@H](O)CC[C@]4(C)[C@H]3CC[C@]12C` the value was “Non-Toxic”. For the molecule `C[C@H](CCC(=O)N1CCN(C(=O)/C=C/c2cccc(OC(F)(F)F)c2)CC1)[C@H]1CC[C@H]2[C@@H]3[C@@H](O)C[C@@H]4C[C@H](O)CC[C@]4(C)[C@H]3CC[C@]12C`, in the series with RAW264.7 [1], the inhibition at 10 µM was greater than 50%. Also, in the series with RAW264.7 [2], the pIC50 was 5.07 and the inhibition result was “Dose-Dependent Effect”. In addition, the Activity result in the series with RAW264.7 [3] is “Non-Toxic”. Take `C[C@H](CCC(=O)N1CCN(C(=O)/C=C/c2ccc(F)c(F)c2)CC1)[C@H]1CC[C@H]2[C@@H]3[C@@H](O)C[C@@H]4C[C@H](O)CC[C@]4(C)[C@H]3CC[C@]12C`: the Activity entry in the series with RAW264.7 [3] is “Non-Toxic”. Same read-out and setting: for `C[C@H](CCC(=O)N1CCN(C(=O)/C=C/c2ccc(F)cc2F)CC1)[C@H]1CC[C@H]2[C@@H]3[C@@H](O)C[C@@H]4C[C@H](O)CC[C@]4(C)[C@H]3CC[C@]12C` the value was “Toxic”.

As for `C[C@H](CCC(=O)N1CCN(C(=O)/C=C/c2ccc(O)cc2)CC1)[C@H]1CC[C@H]2[C@@H]3[C@@H](O)C[C@@H]4C[C@H](O)CC[C@]4(C)[C@H]3CC[C@]12C`, the Activity result with RAW264.7 [3] is on record as “Non-Toxic”. On the same count and under the same terms, for `COc1cc(/C=C\C(=O)N2CCN(C(=O)CC[C@@H](C)[C@H]3CC[C@H]4[C@@H]5[C@@H](O)C[C@@H]6C[C@H](O)CC[C@]6(C)[C@H]5CC[C@]34C)CC2)ccc1O` the value was “Non-Toxic”; for `C[C@H](CCC(=O)N1CCN(C(=O)/C=C/c2ccc3c(c2)OCO3)CC1)[C@H]1CC[C@H]2[C@@H]3[C@@H](O)C[C@@H]4C[C@H](O)CC[C@]4(C)[C@H]3CC[C@]12C`, “Non-Toxic”. On the same count and under the same terms, for `COc1ccc(/C=C/C(=O)N2CCN(C(=O)CC[C@@H](C)[C@H]3CC[C@H]4[C@@H]5[C@@H](O)C[C@@H]6C[C@H](O)CC[C@]6(C)[C@H]5CC[C@]34C)CC2)cc1` the value was “Non-Toxic”; for `C[C@H](CCC(=O)N1CCN(C(=O)/C=C/c2cccc3ccccc23)CC1)[C@H]1CC[C@H]2[C@@H]3[C@@H](O)C[C@@H]4C[C@H](O)CC[C@]4(C)[C@H]3CC[C@]12C`, “Non-Toxic”; for `Cc1ccc(/C=C/C(=O)N2CCN(C(=O)CC[C@@H](C)[C@H]3CC[C@H]4[C@@H]5C(=O)C[C@@H]6CC(=O)CC[C@]6(C)[C@H]5CC[C@]34C)CC2)cc1`, “Toxic”. Still for that read-out and setting: for `C[C@H](CCC(=O)N1CCN(C(=O)/C=C/c2ccc(C(F)(F)F)cc2)CC1)[C@H]1CC[C@H]2[C@@H]3[C@@H](O)C[C@@H]4C[C@H](O)CC[C@]4(C)[C@H]3CC[C@]12C` the value was “Non-Toxic”; for `COc1cc(/C=C\C(=O)N2CCN(C(=O)CC[C@@H](C)[C@H]3CC[C@H]4[C@@H]5[C@@H](O)C[C@@H]6C[C@H](O)CC[C@]6(C)[C@H]5CC[C@]34C)CC2)cc(OC)c1OC`, “Non-Toxic”. As to `CC(=O)O[C@@H]1CC[C@@]2(C)[C@@H](C1)C[C@H](OC(C)=O)[C@@H]1[C@@H]2CC[C@]2(C)[C@@H]([C@H](C)CCC(=O)N3CCN(C(=O)/C=C/c4ccc(C)cc4)CC3)CC[C@@H]12`, the Activity result with RAW264.7 [3] is given as “Non-Toxic”.

Consider `COc1cc(/C=C/C(=O)N2CCN(C(=O)CC[C@@H](C)[C@H]3CC[C@H]4[C@@H]5[C@@H](O)C[C@@H]6C[C@H](O)CC[C@]6(C)[C@H]5CC[C@]34C)CC2)cc(OC)c1O`, for which the Activity result with RAW264.7 [3] is “Toxic”. On the same count and under the same terms, for `COc1cc(/C=C/C(=O)N2CCN(C(=O)CC[C@@H](C)[C@H]3CC[C@H]4[C@@H]5[C@@H](O)C[C@@H]6C[C@H](O)CC[C@]6(C)[C@H]5CC[C@]34C)CC2)ccc1O` the value was “Non-Toxic”. Turning to `C[C@H](CCC(=O)N1CCN(C(=O)CCc2ccccc2)CC1)[C@H]1CC[C@H]2[C@@H]3[C@@H](O)C[C@@H]4C[C@H](O)CC[C@]4(C)[C@H]3CC[C@]12C`, the Activity entry in the series with RAW264.7 [3] is “Non-Toxic”. On the same count and under the same terms, for `C[C@H](CCC(=O)N1CCN(C(=O)/C=C/c2ccccc2O)CC1)[C@H]1CC[C@H]2[C@@H]3[C@@H](O)C[C@@H]4C[C@H](O)CC[C@]4(C)[C@H]3CC[C@]12C` the value was “Non-Toxic”. On the same count and under the same terms, for `C[C@H](CCC(=O)N1CCN(C(=O)/C=C/c2ccc(Cl)c(Cl)c2)CC1)[C@H]1CC[C@H]2[C@@H]3[C@@H](O)C[C@@H]4C[C@H](O)CC[C@]4(C)[C@H]3CC[C@]12C` the value was “Non-Toxic”; for `C[C@H](CCC(=O)N1CCN(C(=O)/C=C/c2ccc(OC(F)(F)F)cc2)CC1)[C@H]1CC[C@H]2[C@@H]3[C@@H](O)C[C@@H]4C[C@H](O)CC[C@]4(C)[C@H]3CC[C@]12C`, “Toxic”; for `C[C@H](CCC(=O)N1CCN(C(=O)/C=C/c2ccccc2Cl)CC1)[C@H]1CC[C@H]2[C@@H]3[C@@H](O)C[C@@H]4C[C@H](O)CC[C@]4(C)[C@H]3CC[C@]12C`, “Non-Toxic”. Regarding `C/C(=C\c1ccccc1)C(=O)N1CCN(C(=O)CC[C@@H](C)[C@H]2CC[C@H]3[C@@H]4[C@@H](O)C[C@@H]5C[C@H](O)CC[C@]5(C)[C@H]4CC[C@]23C)CC1`, in the series with RAW264.7 [3], the Activity entry is on record as “Non-Toxic”.

Turning to `C[C@H](CCC(=O)N1CCN(C(=O)/C=C/c2cc(F)cc(F)c2)CC1)[C@H]1CC[C@H]2[C@@H]3[C@@H](O)C[C@@H]4C[C@H](O)CC[C@]4(C)[C@H]3CC[C@]12C`, the Activity result with RAW264.7 [3] was “Non-Toxic”.
